Experimental data taken from publication PMC11335189, “Revealing molecular determinants governing mambalgin-3 pharmacology at acid-sensing ion channel 1 variants” (Cellular and Molecular Life Sciences: CMLS, 2024).
Read-outs that look alike come from different tables or passages of the source. Positions of bridges follow the written chain, without caps; N, C: chain ends. No end group written: not given here.

What was measured:
hASIC1b = biological target: T1, hASIC1b (Homo sapiens, UniProt P78348); experiment: TEVC in Xenopus laevis oocytes expressing hASIC1b; type: cell-based; settings: for remaining activity at 1 µM: 1 µM peptide, conditioning pH 7.45, mean, n ≥ 5, read-out: I/Icontrol
T1 construct: expressed in transfected cells; host or cells: Xenopus laevis oocytes (cRNA injection)
T1 sequence (P78348 1-562 isoform P78348-3): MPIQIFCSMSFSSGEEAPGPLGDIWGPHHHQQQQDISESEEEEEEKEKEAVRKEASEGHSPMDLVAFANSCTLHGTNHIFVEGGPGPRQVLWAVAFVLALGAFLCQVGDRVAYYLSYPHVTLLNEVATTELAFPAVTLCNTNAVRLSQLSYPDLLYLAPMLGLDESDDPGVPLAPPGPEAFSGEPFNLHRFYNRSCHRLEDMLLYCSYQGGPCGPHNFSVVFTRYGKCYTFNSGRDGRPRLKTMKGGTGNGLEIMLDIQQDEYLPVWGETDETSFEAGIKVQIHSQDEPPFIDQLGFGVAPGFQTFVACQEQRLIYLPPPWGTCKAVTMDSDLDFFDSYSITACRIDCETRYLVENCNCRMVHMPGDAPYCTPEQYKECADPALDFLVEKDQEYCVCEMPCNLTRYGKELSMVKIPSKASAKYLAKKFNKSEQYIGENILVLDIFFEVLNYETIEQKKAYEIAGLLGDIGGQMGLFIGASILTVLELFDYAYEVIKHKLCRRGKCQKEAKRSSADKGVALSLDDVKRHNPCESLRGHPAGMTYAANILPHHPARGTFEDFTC
Protocol: (§1) Two-electrode voltage-clamp (TEVC) experiments using Xenopus laevis oocytes were conducted as previously described. Briefly, oocytes were surgically removed from anaesthetised female frogs, then treated with collagenase (~ 1 mg/ml, Sigma type I) for 2 h under agitation at room temperature. cRNAs were synthesised using a mMessage mMachine T7 or SP6 transcription kit (Thermo Fisher Scientific Australia Pty Ltd, Scoresby, VIC, Australia) and injected into healthy stage V–VI oocytes at 0.2–20 ng per cell. Different amounts of RNA were used for different wild-type and mutant constructs, as well as to titrate expression levels to record over multiple days and maintaining consistent expression levels. Injected oocytes were incubated at 17 °C for 1–7 days in 50% Leibovitz’s L-15 medium (Gibco, Thermo Fisher Scientific Australia Pty Ltd, Scoresby, VIC, Australia), supplemented with 25 µg/mL gentamicin, 25 µg/mL streptomycin, and 2.5% fetal horse serum. Membrane currents were recorded 2–7 days after cRNA-injection under voltage-clamp at -60 mV (Axon Axoclamp 900 A, Molecular Devices, CA, USA) using two standard glass microelectrodes of 0.5–1 MΩ resistance when filled with 3 M KCl solution. Data were sampled at 2 kHz and filtered at 0.1 kHz using Clampex 10 software (Molecular Devices, CA, USA). A microperfusion system was used to allow fast extracellular solution exchange (bath volume = ~ 30 µL). All experiments were performed at room temperature (18–23 °C) in ND96 (96 mM NaCl, 2 mM KCl, 1.8 mM CaCl2, 2 mM MgCl2, 5 mM HEPES, pH 7.45). In solutions below pH 6.8, HEPES was replaced by MES. All solutions containing peptides contained 0.05% fatty acid free bovine serum albumin to decrease adsorptive losses of peptide to plasticware. For all channels tested, control current magnitudes between 500 and 9000 nA when tested using a conditioning pH of 7.45 and stimulating pH of 6 (except for the chimeras that were stimulated with pH 5) were used for data collection. Before recording any experiments, oocytes were stimulated multiple times with low pH to minimise and stabilise tachyphylaxis/desensitisation, which were then accounted for during analysis. Complete recovery of currents from Ma-3 induced modulation within 3 min of washout at all channels tested allowed for correction for tachyphylaxis/desensitisation during analyses.
(§2) Specific to this work, the standard protocol was for oocytes to be conditioned at pH 7.45 and channels stimulated every 60 s using a 5 s pH 5 or 6 application, unless stated otherwise. For all concentration-response data, peptides were applied for ~ 50 s between each low pH stimulus application. Activation curves were determined by conditioning oocytes at pH 8 (Fig. 2e − g; and Fig. 5a and b) or 7.45 (Fig. 6; and Supplementary Fig. 2d and c) for 55 s and applying low pH stimuli from 7.25 to 5.0 for 5 s. Steady-state desensitisation (SSD) was determined by applying conditioning solutions of pH values from 8 to 6 for 115 s prior to stimulation by a pH drop to 5 for 5 s. Ma-3 was only applied in the conditioning solution for activation and steady-state desensitisation curves in the presence of peptide. Control pH-dependence curves were determined in the absence of any Ma-3. When assessing the effect of Ma-3 on the rASIC1a: ASIC1b chimeras (C92 and C166; and for the comparative wild-type data), the conditioning pH was 7.45 and stimulating pH 5 (Fig. 3b). Specific details of the conditioning and stimulating pH are noted in each figure legend.
(§3) Data were analysed using pCLAMP-Clampfit software (Version 11, Molecular Devices, CA, USA) and GraphPad Prism 9.5 and 10.2.2 (GraphPad Software, San Diego, CA, USA). To obtain the Hill coefficient (nH) and half-maximal response (EC50, IC50, or pH50) the Hill equation was fitted to normalised concentration-response curves by using a non-linear fit to the data of a four-parameter logistic equation (“sigmoidal dose-response” in GraphPad Prism 9.5). […]

rASIC1a = biological target: T2, rASIC1a (Rattus norvegicus, UniProt P55926); experiment: TEVC in Xenopus laevis oocytes expressing rASIC1a; type: cell-based; settings: peptides applied at pH 7.45, stimulated at pH 6
T2 construct: expressed in transfected cells; host or cells: Xenopus laevis oocytes (cRNA injection)
T2 sequence (P55926 1-526): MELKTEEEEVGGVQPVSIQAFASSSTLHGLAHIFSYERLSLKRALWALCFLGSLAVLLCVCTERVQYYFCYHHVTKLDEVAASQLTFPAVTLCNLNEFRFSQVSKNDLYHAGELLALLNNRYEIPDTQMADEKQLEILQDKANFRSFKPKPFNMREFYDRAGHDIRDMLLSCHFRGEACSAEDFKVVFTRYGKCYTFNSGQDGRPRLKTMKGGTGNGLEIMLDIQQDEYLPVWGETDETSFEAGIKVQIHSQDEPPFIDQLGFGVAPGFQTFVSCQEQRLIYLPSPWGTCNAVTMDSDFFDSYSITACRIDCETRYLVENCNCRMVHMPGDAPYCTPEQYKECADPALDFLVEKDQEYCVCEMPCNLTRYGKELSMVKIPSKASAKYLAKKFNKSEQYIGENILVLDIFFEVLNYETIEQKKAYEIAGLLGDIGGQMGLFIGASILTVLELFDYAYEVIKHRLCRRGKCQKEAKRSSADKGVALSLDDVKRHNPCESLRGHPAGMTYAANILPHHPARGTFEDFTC
Protocol: as §1, §2, §3

[1] = biological target: T3, rat acid-sensing ion channel 1a (rat) (UniProt P55926)
T3 sequence: T2 sequence (P55926 1-526)

Row | Substance | remaining activity at 1 µM (hASIC1b; pH 5 evoked currents) | remaining activity at 1 µM (hASIC1b; pH 6 evoked currents) | increase in IC50 (loss of potency) relative to wild-type Ma-3 (rASIC1a) | Hill slope (95% CI) (hASIC1b; conditioning pH 7.45, pH 6 evoked currents, potentiation, 95% CI) | fold increase of the IC50 of current inhibition against wild-type Ma-3 (conditioning pH 7.45, stimulus pH 6) [1]
1 | H-SLKCYQAGKVVTCHRDMKFCYHNIGMPFRNLKLILQGCSSSCSETENNKCCSTDRCNK (disulfide 4-20, 13-38, 42-50, 51-56 (inferred)) [H6A] | 98% | 103% | greater than 10 fold | – | –
2 | H-SLKCYQHGKVVTCARDMKFCYHNIGMPFRNLKLILQGCSSSCSETENNKCCSTDRCNK (disulfide 4-20, 13-38, 42-50, 51-56 (inferred)) [H13A] | 74% | 142% | – | – | –
3 | H-SLKCYQHGKVVTCHADMKFCYHNIGMPFRNLKLILQGCSSSCSETENNKCCSTDRCNK (disulfide 4-20, 13-38, 42-50, 51-56 (inferred)) [R14A] | 77% | 157% | – | – | –
4 | H-SLKCYQHGKVVTCHRDMKFCYHNAGMPFRNLKLILQGCSSSCSETENNKCCSTDRCNK (disulfide 4-20, 13-38, 42-50, 51-56 (inferred)) [I23A] | 67% | 159% | – | – | –
5 | H-SLKCYQHGKVVTCHRDMKFCYHNIGMPARNLKLILQGCSSSCSETENNKCCSTDRCNK (disulfide 4-20, 13-38, 42-50, 51-56 (inferred)) [F27A] | 96% | 111% | greater than 10 fold | – | –
6 | H-SLKCYQHGKVVTCHRDMKFCYHNIGMPFANLKLILQGCSSSCSETENNKCCSTDRCNK (disulfide 4-20, 13-38, 42-50, 51-56 (inferred)) [R28A] | 97% | 118% | greater than 10 fold | – | –
7 | H-SLKCYQHGKVVTCHRDMKFCYHNIGMPFRALKLILQGCSSSCSETENNKCCSTDRCNK (disulfide 4-20, 13-38, 42-50, 51-56 (inferred)) [N29A] | 76% | 171% | – | – | –
8 | H-SLKCYQHGKVVTCHRDMKFCYHNIGMPFRNAKLILQGCSSSCSETENNKCCSTDRCNK (disulfide 4-20, 13-38, 42-50, 51-56 (inferred)) [L30A] | 116% | 172% | – | – | –
9 | H-SLKCYQHGKVVTCHRDMKFCYHNIGMPFRNLALILQGCSSSCSETENNKCCSTDRCNK (disulfide 4-20, 13-38, 42-50, 51-56 (inferred)) [K31A] | 94% | 140% | – | – | –
10 | H-SLKCYQHGKVVTCHRDMKFCYHNIGMPFRNLKAILQGCSSSCSETENNKCCSTDRCNK (disulfide 4-20, 13-38, 42-50, 51-56 (inferred)) [L32A] | 96% | 100% | greater than 10 fold | – | –
11 | H-SLKCYQHGKVVTCHRDMKFCYHNIGMPFRNLKLALQGCSSSCSETENNKCCSTDRCNK (disulfide 4-20, 13-38, 42-50, 51-56 (inferred)) [I33A] | 100% | 133% | greater than 10 fold | – | –
12 | H-SLKCYQHGKVVTCHRDMKFCYHNIGMPFRNLKLIAQGCSSSCSETENNKCCSTDRCNK (disulfide 4-20, 13-38, 42-50, 51-56 (inferred)) [L34A] | 98% | 116% | greater than 10 fold | – | –
13 | H-SLKCYQHGKVVTCHRDMKFCYHNIGMPFRNLKLILAGCSSSCSETENNKCCSTDRCNK (disulfide 4-20, 13-38, 42-50, 51-56 (inferred)) [Q35A] | 71% | 168% | – | – | –
14 | H-SLKCYQHGKVVTCHRDMKFCYHNIGMPFRNLKLILQGCSAACSETENNKCCSTDRCNK (disulfide 4-20, 13-38, 42-50, 51-56 (inferred)) [S39A/S40A] | 71% | 165% | – | – | –
15 | H-SLKCYQHGKVVTCHRDMKFCYHNIGMPFRNLKLILQGCSSSCSETANNKCCSTDRCNK (disulfide 4-20, 13-38, 42-50, 51-56 (inferred)) [E45A] | 68% | 163% | – | – | –
16 | H-SLKCYQHGKVVTCHRDMKFCYHNIGMPFRNLKLILQGCSSSCSETENNACCSTDRCNK (disulfide 4-20, 13-38, 42-50, 51-56 (inferred)) [K48A] | 70% | 154% | – | – | –
17 | H-SLKCYQHGKVVTCHRDMKFCYHNIGMPFRNLKLILQGCSSSCSETENNKCCSTDACNK (disulfide 4-20, 13-38, 42-50, 51-56 (inferred)) [R54A] | 79% | 145% | – | – | –
18 | H-SLKCYQHGKVVTCHRDMKFCYHNIGMPFRNLKLILQGCSSSCSETENNKCCSTDRCNA (disulfide 4-20, 13-38, 42-50, 51-56 (inferred)) [K57A] | 73% | 147% | – | – | –
19 | LKCYQHGKVVTCHRDMKFCYHNTGMPFRNLKLILQGCSSSCSETENNKCCSTDRCNK (disulfide 3-19, 12-37, 41-49, 50-55) [Ma-1, reference compound] | – | – | – | 0.73–2.56 | –
20 | Ma-3 H6A (peptide) | – | – | – | – | > 10 fold
